Test results: US20230040770A1, “HETEROCYCLIC COMPOUND AND USE THEREOF” (TAKEDA PHARMACEUTICAL COMPANY LIMITED, priority 2019, published 2023)

The molecules below were run against T1, human orexin type 2 receptor (Homo sapiens, UniProt O43614) (assay: Measurement of orexin type 2 receptor agonist activity (calcium indicator fluorescence, CHO cells forcibly expressing human OX2 receptor)). Details: compound at 3 μM; 0% = DMSO, 100% = orexin A (human) 10 nM.
T1 construct: expressed in transfected cells
T1 sequence (O43614 1-444): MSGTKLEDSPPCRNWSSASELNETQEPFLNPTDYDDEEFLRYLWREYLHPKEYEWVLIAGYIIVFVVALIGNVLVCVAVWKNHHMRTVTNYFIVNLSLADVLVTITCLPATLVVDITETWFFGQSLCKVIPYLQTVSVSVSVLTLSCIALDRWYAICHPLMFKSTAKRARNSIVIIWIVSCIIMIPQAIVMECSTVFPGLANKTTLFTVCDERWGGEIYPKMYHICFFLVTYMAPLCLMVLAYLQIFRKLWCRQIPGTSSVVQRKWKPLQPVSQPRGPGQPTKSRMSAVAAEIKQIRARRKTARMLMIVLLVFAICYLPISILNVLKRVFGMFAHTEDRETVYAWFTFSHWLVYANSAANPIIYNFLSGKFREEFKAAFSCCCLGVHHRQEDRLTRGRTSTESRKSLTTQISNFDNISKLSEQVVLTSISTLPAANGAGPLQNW
Format: cell-based
Source text: To obtain a cell clone stably expressing human orexin type 2 receptor, human orexin type 2 receptor cDNA was inserted into pcDNA3.1(+) plasmid vector (Invitrogen), and a plasmid DNA for expression of human orexin type 2 receptor (pcDNA3.1(+)/hOX2R) was cloned. The plasmid DNA was introduced into CHO-dhfr cell by an electroporation method, and human orexin type 2 receptor expressing clone cells were obtained by limiting dilution method by using G418 drug resistance as a selection marker.
CHO cells forcibly expressing human OX2 receptor were seeded in each well of 384 well black transparent bottom plate (BD Falcon) at 7,500 cells/well, and cultured for one day in a 5% CO2 incubator at 37° C. After removal of the medium in the cell plate, assay buffer A containing a calcium indicator (HBSS (Thermo Fisher Scientific), 20 mM HEPES (Thermo Fisher Scientific), 0.1% BSA (Sigma-Aldrich), 2.5 μg/mL Fluo-4 AM (DOJINDO Chemical), 0.08% Pluronic F127 (DOJINDO Chemical), 1.25 mM probenecid (DOJINDO Chemical)) was added at 30 μL/well. The plate was stood for 30 min in a 5% CO2 incubator at 37° C., and further stood at room temperature for 30 min. A test compound prepared by diluting with assay buffer B (HBSS, 20 mM HEPES, 0.1% BSA) was added at 10 μL/well, and the fluorescence value was measured by FDSSμCELL (Hamamatsu Photonics K.K.) every one sec for 1 min, and thereafter every two sec for […]. The activity (%) of the test compound was calculated assuming that variation in the fluorescence value when DMSO was added instead of the test compound was 0%, and variation in the fluorescence value when orexin A (human) (PEPTIDE INSTITUTE, INC.) was added at the final concentration of 10 nM was 100%.

Compared with `O=C(N1CCC1)N1CC(F)(F)[C@H](NS(=O)(=O)C2CC2)[C@@H]1Cc1cccc(-c2cc(F)cc(F)c2)c1F` [Example 525, N-{(2S,3R)-1-(azetidine-1-carbonyl)-4,4-difluoro-2-[(2,3′,5′-trifluoro[1,1′-biphenyl]-3-yl)methyl]pyrrolidin-3-yl]cyclopropanesulfonamide], `CCS(=O)(=O)N[C@@H]1[C@H](Cc2cccc(-c3cc(F)cc(F)c3)c2F)N(C(=O)N2CCC2)CC1(F)F` [Example 283, N-{(2S,3R)-1-(azetidine-1-carbonyl)-4,4-difluoro-2-[(2,3′,5′-trifluoro[1,1′-biphenyl]-3-yl)methyl]pyrrolidin-3-yl}ethanesulfonamide] is higher in “OX2R agonist activity (3 μM, %)” value: 85% for the first, 93% for the second.

Going from `O=C(C1CCO1)N1CC(F)(F)[C@H](NS(=O)(=O)C2CC2)[C@@H]1Cc1cccc(-c2cccc(F)c2)c1F` (stereo partly drawn) [Example 129, N-[(2S,3R)-2-[(2,3′-difluoro[1,1′-biphenyl]-3-yl)methyl]-4,4-difluoro-1-(oxetane-2-carbonyl)pyrrolidin-3-yl]cyclopropanesulfonamide] to `CS(=O)(=O)N[C@@H]1[C@H](Cc2cccc(-c3cccc(F)c3)c2F)N(C(=O)[C@H]2CCO2)CC1(F)F` [Example 81, N-[(2S,3R)-2-[(2,3′-difluoro[1,1′-biphenyl]-3-yl)methyl]-4,4-difluoro-1-((2R)-oxetane-2-carbonyl)pyrrolidin-3-yl]methanesulfonamide], the “OX2R agonist activity (3 μM, %)” value rises from 92% to 95%.

Compared with `CC(C)C(=O)N1C[C@H](F)[C@H](NS(C)(=O)=O)[C@@H]1Cc1cccc(-c2cc(F)cc(F)c2)c1F` [Example 316, N-{(2S,3R,4S)-4-fluoro-1-(2-methylpropanoyl)-2-[(2,3′,5′-trifluoro[1,1′-biphenyl]-3-yl)methyl]pyrrolidin-3-yl}methanesulfonamide], `CCS(=O)(=O)N[C@H]1[C@@H](F)CN(C(=O)C(C)C)[C@H]1Cc1cccc(-c2cc(F)ccc2F)c1F` [Example 292, N-{(2S,3R,4S)-4-fluoro-1-(2-methylpropanoyl)-2-[(2,2′,5′-trifluoro[1,1′-biphenyl]-3-yl)methyl]pyrrolidin-3-yl}ethanesulfonamide] is lower in “OX2R agonist activity (3 μM, %)” value: 101% for the first, 87% for the second.

Compared with `Cc1cccc(-c2cccc(C[C@H]3[C@@H](NS(=O)(=O)N(C)C)C(F)(F)CN3C(=O)C3(O)CCC3)c2F)c1` [Example 427, N′-[(2S,3R)-4,4-difluoro-2-[(2-fluoro-3′-methyl[1,1′-biphenyl]-3-yl)methyl]-1-(1-hydroxycyclobutane-1-carbonyl)pyrrolidin-3-yl]-N,N-dimethylsulfuric diamide], `Cc1cccc(-c2cccc(C[C@H]3[C@@H](NS(=O)(=O)N(C)C)C(F)(F)CN3C(=O)N(C)C)c2F)c1` [Example 442, (2S,3R)-3-[(dimethylsulfamoyl)amino]-4,4-difluoro-2-[(2-fluoro-3′-methyl[1,1′-biphenyl]-3-yl)methyl]-N,N-dimethylpyrrolidine-1-carboxamide] is lower in “OX2R agonist activity (3 μM, %)” value: 99% for the first, 96% for the second.

Going from `CS(=O)(=O)N[C@@H]1[C@H](Cc2cccc(-c3ccccc3)c2F)N(C(=O)[C@H]2CCCO2)CC1(F)F` [Example 73, N-{(2S,3R)-4,4-difluoro-2-[(2-fluoro[1,1′-biphenyl]-3-yl)methyl]-1-[(2R)-oxolane-2-carbonyl]pyrrolidin-3-yl}methanesulfonamide] to `CS(=O)(=O)N[C@@H]1[C@H](Cc2cccc(-c3ccccc3)c2F)N(C(=O)C2CCO2)CC1(F)F` (stereo partly drawn) [Example 79, N-[(2S,3R)-4,4-difluoro-2-[(2-fluoro[1,1′-biphenyl]-3-yl)methyl]-1-(oxetane-2-carbonyl)pyrrolidin-3-yl]methanesulfonamide], the “OX2R agonist activity (3 μM, %)” value falls from 104% to 102%.

First: Cc1cccc(-c2cccc(C[C@H]3[C@@H](NS(=O)(=O)C4CC4)[C@@H](F)CN3C(=O)N3CCC3)c2F)c1 [Example 543, N-{(2S,3R,4S)-1-(azetidine-1-carbonyl)-4-fluoro-2-[(2-fluoro-3′-methyl[1,1′-biphenyl]-3-yl)methyl]pyrrolidin-3-yl}cyclopropanesulfonamide]
Second: O=C(C1CC1)N1C[C@H](F)[C@H](NS(=O)(=O)C2CC2)[C@@H]1Cc1cccc(-c2cccc(F)c2)c1F [Example 372, N-{(2S,3R,4S)-1-(cyclopropanecarbonyl)-2-[(2,3′-difluoro[1,1′-biphenyl]-3-yl)methyl]-4-fluoropyrrolidin-3-yl}cycloproapnesulfonamide]
The “OX2R agonist activity (3 μM, %)” value of the first is higher: 99% for the first, 89% for the second.

Going from `CC(C)C(=O)N1CC(F)(F)[C@H](NS(C)(=O)=O)[C@@H]1Cc1cccc(-c2cccc(F)c2)c1F` [Example 98, N-[(2S,3R)-2-[(2,3′-difluoro[1,1′-biphenyl]-3-yl)methyl]-4,4-difluoro-1-(2-methylpropanoyl)pyrrolidin-3-yl]methanesulfonamide] to `CS(=O)(=O)N[C@@H]1[C@H](Cc2cccc(-c3cccc(Cl)c3)c2F)N(C(=O)C2CCO2)CC1(F)F` (stereo partly drawn) [Example 259, N-[(2S,3R)-2-[(3′-chloro-2-fluoro[1,1′-biphenyl]-3-yl)methyl]-4,4-difluoro-1-(oxetane-2-carbonyl)pyrrolidin-3-yl]methanesulfonamide], the “OX2R agonist activity (3 μM, %)” value rises from 91% to 96%.

First: CCS(=O)(=O)N[C@@H]1[C@H](Cc2cccc(-c3cccc(F)c3F)c2F)N(C(=O)N2CCC2)CC1(F)F [Example 289, N-{(2S,3R)-1-(azetidine-1-carbonyl)-4,4-difluoro-2-[(2,2′,3′-trifluoro[1,1′-biphenyl]-3-yl)methyl]pyrrolidin-3-yl}ethanesulfonamide]
Second: CCS(=O)(=O)N[C@@H]1[C@H](Cc2cccc(-c3ccc(F)c(F)c3F)c2F)N(C(=O)C2CCO2)CC1(F)F (stereo partly drawn) [Example 471, N-{(2S,3R)-4,4-difluoro-1-(oxetane-2-carbonyl)-2-[(2,2′,3′,4′-tetrafluoro[1,1′-biphenyl]-3-yl)methyl]pyrrolidin-3-yl}ethanesulfonamide]
The “OX2R agonist activity (3 μM, %)” value of the first is lower: 80% for the first, 94% for the second.

First: CCS(=O)(=O)N[C@H]1[C@@H](F)CN(C(=O)C2CCO2)[C@H]1Cc1cccc(-c2cc(F)cc(F)c2)c1F (stereo partly drawn) [Example 304, N-{(2S,3R,4S)-4-fluoro-1-(oxetane-2-carbonyl)-2-[(2,3′,5′-trifluoro[1,1′-biphenyl]-3-yl)methyl]pyrrolidin-3-yl}ethanesulfonamide]
Second: CCS(=O)(=O)N[C@H]1[C@@H](F)CN(C(=O)C2CCO2)[C@H]1Cc1cccc(-c2cccc(F)c2)c1F (stereo partly drawn) [Example 216, N-[(2S,3R,4S)-2-[(2,3′-difluoro[1,1′-biphenyl]-3-yl)methyl]-4-fluoro-1-(oxetane-2-carbonyl)pyrrolidin-3-yl]ethanesulfonamide]
The “OX2R agonist activity (3 μM, %)” value of the first is higher: 99% for the first, 95% for the second.

Compared with `CCS(=O)(=O)N[C@H]1[C@@H](F)CN(C(=O)N(C)C)[C@H]1Cc1cccc(-c2cccc(C)c2)c1F` [Example 333, (2S,3R,4S)-3-[(ethanesulfonyl)amino]-4-fluoro-2-[(2-fluoro-3′-methyl[1,1′-biphenyl]-3-yl)methyl]-N,N-dimethylpyrrolidine-1-carboxamide], `CCS(=O)(=O)N[C@@H]1[C@H](Cc2cccc(-c3cccc(C)c3)c2F)N(C(=O)C2CCO2)CC1(F)F` (stereo partly drawn) [Example 277, N-[(2S,3R)-4,4-difluoro-2-[(2-fluoro-3′-methyl[1,1′-biphenyl]-3-yl)methyl]-1-(oxetane-2-carbonyl)pyrrolidin-3-yl]ethanesulfonamide] is higher in “OX2R agonist activity (3 μM, %)” value: 78% for the first, 94% for the second.

Going from `CCS(=O)(=O)N[C@@H]1[C@H](Cc2cccc(-c3ccc(F)c(F)c3)c2F)N(C(=O)C2CCO2)CC1(F)F` (stereo partly drawn) [Example 467, N-{(2S,3R)-4,4-difluoro-1-(oxetane-2-carbonyl)-2-[(2,3′,4′-trifluoro[1,1′-biphenyl]-3-yl)methyl]pyrrolidin-3-yl}ethanesulfonamide] to `CCS(=O)(=O)N[C@H]1[C@@H](F)CN(C(=O)C23CC(C2)C3)[C@H]1Cc1cccc(-c2cccc(F)c2F)c1F` [Example 366, N-{(2S,3R,4S)-1-(bicyclo[1.1.1]pentane-1-carbonyl)-4-fluoro-2-[(2,2′,3′-trifluoro[1,1′-biphenyl]-3-yl)methyl]pyrrolidin-3-yl}ethanesulfonamdie], the “OX2R agonist activity (3 μM, %)” value falls from 105% to 96%.
